Reference: US12077503B2, “Substituted cyclic amides and their use as herbicides” (FMC CORPORATION, priority 2015, dated 2024)

Columns and labels:
Format in all cases: in vivo
Kochia (Kochia scoparia) [1] = test: Test A preemergence; conditions: Bassia scoparia, pre-emergence, 240 h, Preemergence
Outline: (§1)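 Preemergence soil spray on seeded pots or post-emergence spray on 1–2 leaf plants, in loam–sand blend. Greenhouse ~10 d. Visual rating 0–100 against untreated plants.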

[2] = test system: barnyardgrass (Echinochloa crus-galli); test: Test A preemergence; conditions: Echinochloa crus-galli, pre-emergence, 240 h, Preemergence
Outline: as §1

[3] = test system: giant foxtail (Setaria faberii); test: Test A preemergence; conditions: Setaria faberi, pre-emergence, 240 h, Preemergence
Outline: as §1

[4] = test system: pigweed (Amaranthus retroflexus); test: Test A preemergence; conditions: Amaranthus retroflexus, pre-emergence, 240 h, Preemergence
[5] = test system: ragweed (common ragweed, Ambrosia elatior); test: Test A preemergence; conditions: Ambrosia artemisiifolia, pre-emergence, 240 h, Preemergence
Outline: as §1

[6] = test system: ryegrass, Italian (Italian ryegrass, Lolium multiflorum); test: Test A preemergence; conditions: Lolium multiflorum, pre-emergence, 240 h, Preemergence
Outline: as §1

[7] = test system: Galium (catchweed bedstraw, Galium aparine); test: Test A postemergence; conditions: Galium, post-emergence, 240 h, Postemergence, read-out: Plant response rating, Galium
Outline: as §1

Kochia (Kochia scoparia) [8] = test: Test A postemergence; conditions: Bassia scoparia, post-emergence, 240 h, Postemergence, read-out: Plant response rating, Kochia
Outline: as §1

[9] = test system: barnyardgrass (Echinochloa crus-galli); test: Test A postemergence; conditions: Echinochloa crus-galli, post-emergence, 240 h, Postemergence, read-out: Plant response rating, Barnyardgrass
Outline: as §1

[10] = test system: blackgrass (Alopecurus myosuroides); test: Test A postemergence; conditions: Alopecurus myosuroides, post-emergence, 240 h, Postemergence, read-out: Plant response rating, Blackgrass
Outline: as §1

corn (Zea mays) = test: Test A postemergence; conditions: Zea mays, post-emergence, 240 h, Postemergence
Outline: as §1

[11] = test system: giant foxtail (Setaria faberii); test: Test A postemergence; conditions: Setaria faberi, post-emergence, 240 h, Postemergence, read-out: Plant response rating, Foxtail, Giant
Outline: as §1

[12] = test system: pigweed (Amaranthus retroflexus); test: Test A postemergence; conditions: Amaranthus retroflexus, post-emergence, 240 h, Postemergence, read-out: Plant response rating, Pigweed
Outline: as §1

[13] = test system: ragweed (common ragweed, Ambrosia elatior); test: Test A postemergence; conditions: Ambrosia artemisiifolia, post-emergence, 240 h, Postemergence, read-out: Plant response rating, Ragweed
Outline: as §1

[14] = test system: ryegrass, Italian (Italian ryegrass, Lolium multiflorum); test: Test A postemergence; conditions: Lolium multiflorum, post-emergence, 240 h, Postemergence, read-out: Plant response rating, Ryegrass, Italian
Outline: as §1

[15] = test system: wheat (Triticum aestivum); test: Test A postemergence; conditions: Triticum aestivum, post-emergence, 240 h, Postemergence, read-out: Plant response rating, Wheat
Outline: as §1

[16] = test system: barnyardgrass (Echinochloa crus-galli); test: Test B flooded paddy test; conditions: Echinochloa crus-galli, 250 g ai/ha, Flood; 0 to 100 scale where 0 is no effect and 100 is complete control; read-out: Barnyardgrass plant response rating
Outline: (§2)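 Rating scale 0–100 (visual, vs untreated controls) after a 13–15 d greenhouse period; application to the flood layer, 3 cm above soil and maintained; plants at 2-leaf stage when treated.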

[17] = test system: ducksalad (Heteranthera limosa); test: Test B flooded paddy test; conditions: Heteranthera limosa, 250 g ai/ha, Flood; 0 to 100 scale where 0 is no effect and 100 is complete control; read-out: Ducksalad plant response rating
Outline: as §2

rice (Oryra sativa) = test: Test B flooded paddy test; conditions: Oryza sativa, 250 g ai/ha, Flood; 0 to 100 scale where 0 is no effect and 100 is complete control; read-out: Rice plant response rating
Outline: as §2

[18] = test system: sedge, umbrella (small-flower umbrella sedge, Cyperus difformis); test: Test B flooded paddy test; conditions: Cyperus difformis, 250 g ai/ha, Flood; 0 to 100 scale where 0 is no effect and 100 is complete control; read-out: Sedge, Umbrella plant response rating
Outline: as §2

[19] = 125 g ai/ha, visual injury after approximately 10 d, 0 to 100 scale where 0 is no effect and 100 is complete control
[20] = 31 g ai/ha, visual injury after approx. 10 d, 0 to 100 scale, 0 no effect, 100 complete control

CC(C)=CC1CNC(=O)C1C(=O)Nc1ccccc1F (stereo not drawn) [Compound 1011]
0%: pest or weed control at 31 g/ha (Kochia (Kochia scoparia) [1]; 31 g ai/ha, 0 to 100 scale where 0 is no effect and 100 is complete control, read-out: Kochia plant response rating) | pest or weed control at 125 g/ha (Kochia (Kochia scoparia) [1]; 125 g ai/ha, visual injury rating after approximately 10 d, read-out: Kochia plant response rating (0 to 100 scale, 0 is no effect, 100 is complete control)) | pest or weed control at 125 g/ha ([2]; 125 g ai/ha, visual injury rating after approximately 10 d, read-out: Barnyardgrass plant response rating (0 to 100 scale, 0 is no effect, 100 is complete control)) | pest or weed control at 31 g/ha ([2]; 31 g ai/ha, 0 to 100 scale (0 no effect, 100 complete control), read-out: Plant response rating, Barnyardgrass) | pest or weed control at 125 g/ha ([3]; 125 g ai/ha, visual injury rating after approximately 10 d, read-out: Foxtail, Giant plant response rating (0 to 100 scale, 0 is no effect, 100 is complete control)) | pest or weed control at 31 g/ha ([3]; 31 g ai/ha, 0 to 100 scale (0 no effect, 100 complete control), read-out: Plant response rating, Foxtail, Giant) | pest or weed control at 31 g/ha ([4]; 31 g ai/ha, 0 to 100 scale where 0 is no effect and 100 is complete control, read-out: Pigweed plant response rating) | pest or weed control at 125 g/ha ([4]; 125 g ai/ha, visual injury rating after approximately 10 d, read-out: Pigweed plant response rating (0 to 100 scale, 0 is no effect, 100 is complete control)) | pest or weed control at 31 g/ha ([5]; 31 g ai/ha, 0 to 100 scale where 0 is no effect and 100 is complete control, read-out: Ragweed plant response rating) | pest or weed control at 125 g/ha ([5]; 125 g ai/ha, visual injury rating after approximately 10 d, read-out: Ragweed plant response rating (0 to 100 scale, 0 is no effect, 100 is complete control)) | pest or weed control at 31 g/ha ([6]; 31 g ai/ha, 0 to 100 scale where 0 is no effect and 100 is complete control, read-out: Ryegrass, Italian plant response rating) | pest or weed control at 125 g/ha ([6]; 125 g ai/ha, visual injury rating after approximately 10 d, read-out: Ryegrass, Italian plant response rating (0 to 100 scale, 0 is no effect, 100 is complete control)) | pest or weed control at 125 g/ha [7, 19] | pest or weed control at 31 g/ha [7, 20] | pest or weed control at 125 g/ha (Kochia (Kochia scoparia) [8]; [19]) | pest or weed control at 31 g/ha (Kochia (Kochia scoparia) [8]; [20]) | pest or weed control at 125 g/ha [9, 19] | pest or weed control at 31 g/ha [9, 20] | pest or weed control at 125 g/ha [10, 19] | pest or weed control at 31 g/ha [10, 20] | Corn plant response rating (crop injury, 0 = no effect, 100 = complete kill) at 125 g/ha (corn (Zea mays); [19]) | Corn plant response rating (crop injury, 0 = no effect, 100 = complete kill) at 31 g/ha (corn (Zea mays); [20]) | pest or weed control at 125 g/ha [11, 19] | pest or weed control at 31 g/ha [11, 20] | pest or weed control at 125 g/ha [12, 19] | pest or weed control at 31 g/ha [12, 20] | pest or weed control at 125 g/ha [13, 19] | pest or weed control at 31 g/ha [13, 20] | pest or weed control at 125 g/ha [14, 19] | pest or weed control at 31 g/ha [14, 20] | plant injury at 125 g/ha [15, 19] | plant injury at 31 g/ha [15, 20] | pest or weed control at 250 g/ha [16] | pest or weed control at 250 g/ha [17] | pest or weed control at 250 g/ha (rice (Oryra sativa)) | pest or weed control at 250 g/ha [18]
